Data from patent US9777017B2, “Tricyclic fused thiophene derivatives as JAK inhibitors” (Incyte Corporation, priority 2012, dated 2017).

How the values were obtained:
Assay type in all cases: biochemical
human JAK2 = human JAK2 (Homo sapiens (Human), UniProt O60674); assay: In vitro JAK kinase assay (HTRF, phosphorylation of a biotinylated peptide), JAK2; design: key to JAK2 IC50 (nM): +indicates an IC50 of ≦100 nM; ++indicates an IC50 of ≦1000 nM; +++indicates an IC50 of ≦2000 nM; ++++indicates an IC50 of >2000 nM; +++++indicates that the IC50 was greater than the highest concentration tested; conditions: 1 mM ATP
Protocol: (§1) Compounds herein were tested for inhibitory activity of JAK targets according to the following in vitro assay described in Park et al., Analytical Biochemistry 1999, 269, 94-104. The catalytic domains of human JAK1 (a.a. 837-1142), JAK2 (a.a. 828-1132) and JAK3 (a.a. 781-1124) were expressed using baculovirus in insect cells and purified. The catalytic activity of JAK1, JAK2 or JAK3 was assayed by measuring the phosphorylation of a biotinylated peptide. The phosphorylated peptide was detected by homogenous time resolved fluorescence (HTRF). IC50s of compounds were measured for each kinase in the 40 μL reactions that contain the enzyme, ATP and 500 nM peptide in 50 mM Tris (pH 7.8) buffer with 100 mM NaCl, 5 mM DTT, and 0.1 mg/mL (0.01%) BSA. For the 1 mM IC50 measurements, ATP concentration in the reactions was 1 mM. Reactions were carried out at room temperature for 1 hour and then stopped with 20 μL 45 mM EDTA, 300 nM SA-APC, 6 nM Eu-Py20 in assay buffer (Perkin Elmer, Boston, Mass.). Binding to the Europium labeled antibody took place for 40 minutes and HTRF signal was measured on a PHERA star plate reader (BMG, Cary, N.C.). The Example compounds were each tested in the Example A assay (see Table 1 for data for the compounds of the examples as tested by the assay of Example A at 1 mM ATP).

human JAK1 [1] = assay: In vitro JAK kinase assay (HTRF, phosphorylation of a biotinylated peptide), JAK1; conditions: ratio of IC50s, 1 mM ATP
Protocol: as §1

human JAK1 [2] = biological target: human JAK1 (Homo sapiens, UniProt P23458); assay: as above; conditions: 1 mM ATP
Protocol: as §1

Sequence of human JAK2 (O60674 828-1132): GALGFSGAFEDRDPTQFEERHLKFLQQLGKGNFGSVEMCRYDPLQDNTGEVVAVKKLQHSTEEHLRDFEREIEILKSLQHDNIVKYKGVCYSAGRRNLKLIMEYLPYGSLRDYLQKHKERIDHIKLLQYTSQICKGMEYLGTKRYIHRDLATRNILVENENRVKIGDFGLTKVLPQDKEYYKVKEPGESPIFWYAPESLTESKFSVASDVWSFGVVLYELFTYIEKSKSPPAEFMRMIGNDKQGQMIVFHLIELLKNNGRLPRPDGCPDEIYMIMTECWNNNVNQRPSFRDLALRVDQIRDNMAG

| SMILES | JAK2 IC50 (nM) (human JAK2) | JAK2/JAK1 (human JAK1 [1]) | IC50 (human JAK1 [2]) [nM] | IC50 (human JAK2) [nM] |
| --- | --- | --- | --- | --- |
| C[C@@H](O)c1nc2cnc3ccsc3c2n1[C@H]1CCCOC1 [Example 1, (1R)-1-{1-[(3S)-Tetrahydro-2H-pyran-3-yl]-1H-imidazo[4,5-d]thieno[3,2-b]pyridin-2-yl}ethanol] | +++++ | >3 | ≤ 1000 |  |
| C[C@@H](O)c1nc2cnc3ccsc3c2n1[C@H]1CC[C@H](O)CC1 [Example 3, trans-4-{2-[(1R)-1-Hydroxyethyl]-1H-imidazo[4,5-d]thieno[3,2-b]pyridin-1-yl}cyclohexanol] | +++++ | >10 | ≤ 1000 |  |
| C[C@@H](O)c1nc2cnc3ccsc3c2n1[C@H]1CC[C@H](NCC(F)(F)F)CC1 [Example 4, (1R)-1-(1-{trans-4-[(2,2,2-Trifluoroethyl)amino]cyclohexyl}-1H-imidazo[4,5-d]thieno[3,2-b]pyridin-2-yl)ethanol] |  | >10 | ≤ 100 | ≤ 2000 |
| C[C@@H](O)c1nc2cnc3ccsc3c2n1[C@H]1CC[C@H](CCS(C)(=O)=O)CC1 [Example 5, (1R)-1-(1-{trans-4-[2-(Methylsulfonyl)ethyl]cyclohexyl}-1H-imidazo[4,5-d]thieno[3,2-b]pyridin-2-yl)ethanol] | +++++ | >10 | ≤ 100 |  |
| C[C@@H](O)c1nc2cnc3ccsc3c2n1[C@H]1CC[C@@H](n2cncn2)CC1 [Example 6, (1R)-1-{1-[cis-4-(1H-1,2,4-Triazol-1-yl)cyclohexyl]-1H-imidazo[4,5-d]thieno[3,2-b]pyridin-2-yl}ethanol] | +++++ | >6 | ≤ 2000 |  |
| C[C@@H](O)c1nc2cnc3ccsc3c2n1[C@H]1CC[C@@H](C#N)CC1 [Example 7, cis-4-{2-[(1R)-1-Hydroxyethyl]-1H-imidazo[4,5-d]thieno[3,2-b]pyridin-1-yl}cyclohexanecarbonitrile] |  | >10 | ≤ 100 | ≤ 2000 |
| C[C@@H](O)c1nc2cnc3ccsc3c2n1[C@H]1CC[C@H](CCC#N)CC1 [Example 8, 3-(trans-4-{2-[(1R)-1-Hydroxyethyl]-1H-imidazo[4,5-d]thieno[3,2-b]pyridin-1-yl}cyclohexyl)propane nitrile] |  | >10 | ≤ 100 | ≤ 1000 |
| C[C@@H](O)c1nc2cnc3ccsc3c2n1[C@H]1CC[C@H](CC#N)CC1.Cl [Example 10, (trans-4-{2-[(1R)-1-Hydroxyethyl]-1H-imidazo[4,5-d]thieno[3,2-b]pyridin-1-yl}cyclohexyl)acetonitrile HCl salt] |  | >10 | ≤ 100 | ≤ 1000 |
| C[C@@H](O)c1nc2cnc3ccsc3c2n1[C@H]1CC[C@H](CO)CC1 [Example 11, (1R)-1-{1-[trans-4-(Hydroxymethyl)cyclohexyl]-1H-imidazo[4,5-d]thieno[3,2-b]pyridin-2-yl}ethanol] | +++++ | >10 | ≤ 100 |  |
| C[C@@H](O)c1nc2cnc3ccsc3c2n1[C@H]1CC[C@H](CF)CC1 [Example 12, (1R)-1-{1-[trans-4-(Fluoromethyl)cyclohexyl]-1H-imidazo[4,5-d]thieno[3,2-b]pyridin-2-yl}ethanol] |  | >10 | ≤ 100 | ≤ 2000 |
| C[C@@H](O)c1nc2cnc3ccsc3c2n1C1CCCCC1 [Example 13, (1R)-1-(1-Cyclohexyl-1H-imidazo[4,5-d]thieno[3,2-b]pyridin-2-yl)ethanol] |  | >10 | ≤ 100 | > 2000 |
| CNS(=O)(=O)C[C@H]1CC[C@H](n2c([C@@H](C)O)nc3cnc4ccsc4c32)CC1 [Example 14, 1-(trans-4-{2-[(1R)-1-hydroxyethyl]-1H-imidazo[4,5-d]thieno[3,2-b]pyridin-1-yl}cyclohexyl)-N-methylmethanesulfonamide] | +++++ | >5 | ≤ 1000 |  |
| C[C@@H](O)c1nc2cnc3ccsc3c2n1[C@H]1CC[C@H](CC#N)OC1 [Example 20, ((2R,5S)-5-{2-[(1R)-1-Hydroxyethyl]-1H-imidazo[4,5-d]thieno[3,2-b]pyridin-1-yl}tetrahydro-2H-pyran-2-yl)acetonitrile] |  | >10 | ≤ 100 | ≤ 1000 |
| C[C@@H](O)c1nc2cnc3ccsc3c2n1[C@H]1CC[C@@H](CC#N)OC1 [Example 21, ((2S,5S)-5-{2-[(1R)-1-Hydroxyethyl]-1H-imidazo[4,5-d]thieno[3,2-b]pyridin-1-yl}tetrahydro-2H-pyran-2-yl)acetonitrile] | +++++ | >10 | ≤ 1000 |  |

Continued, values first:

| JAK2 IC50 (nM) (human JAK2) | JAK2/JAK1 (human JAK1 [1]) | IC50 (human JAK1 [2]) [nM] | IC50 (human JAK2) [nM] | SMILES |
| --- | --- | --- | --- | --- |
| +++++ | >9 | ≤ 2000 |  | C[C@@H](O)c1nc2cnc3ccsc3c2n1C1CCN(CC(F)(F)F)CC1 [Example 15, (1R)-1-{1-[1-(2,2,2-Trifluoroethyl)piperidin-4-yl]-1H-imidazo[4,5-d]thieno[3,2-b]pyridin-2-yl}ethanol] |
|  | >10 | ≤ 1000 | > 2000 | C[C@@H](O)c1nc2cnc3ccsc3c2n1C1CCN(CCC#N)CC1 [Example 16, 3-(4-{2-[(1R)-1-Hydroxyethyl]-1H-imidazo[4,5-d]thieno[3,2-b]pyridin-1-yl}piperidin-1-yl)propanenitrile] |
|  | >10 | ≤ 100 | ≤ 1000 | N#CC[C@H]1CC[C@H](n2c(CO)nc3cnc4ccsc4c32)CC1 [Example 17, {trans-4-[2-(Hydroxymethyl)-1H-imidazo[4,5-b]thieno[3,2-b]pyridin-1-yl]cyclohexyl}acetonitrile] |
|  | >10 | ≤ 100 | ≤ 1000 | CS(=O)(=O)NCc1nc2cnc3ccsc3c2n1[C@H]1CC[C@H](CC#N)CC1 [Example 18, N-({1-[trans-4-(Cyanomethyl)cyclohexyl]-1H-imidazo[4,5-d]thieno[3,2-b]pyridin-2-yl}methyl)methanesulfonamide] |
| +++++ | >10 | ≤ 1000 |  | C[C@@H](O)c1nc2cnc3ccsc3c2n1[C@H]1CCC(CO)OC1 (stereo partly drawn) [Example 19, (1R)-1-{1-[(3S)-6-(Hydroxymethyl)tetrahydro-2H-pyran-3-yl]-1H-imidazo[4,5-d]thieno[3,2-b]pyridin-2-yl}ethanol] |
| +++++ | >4 | ≤ 1000 |  | CS(=O)(=O)NCc1nc2cnc3ccsc3c2n1[C@H]1CC2CCC1C2 (stereo partly drawn) [Example 22, N-((1-((2S)-Bicyclo[2.2.1]heptan-2-yl)-1H-imidazo[4,5-d]thieno[3,2-b]pyridin-2-yl)methyl)methanesulfonamide] |
|  | >10 | ≤ 100 | ≤ 1000 | C[C@@H](O)c1cc2cnc3ccsc3c2n1[C@H]1CC[C@H](CC#N)CC1 [Example 23, (trans-4-{7-[(1R)-1-Hydroxyethyl]-8H-pyrrolo[2,3-d]thieno[3,2-b]pyridin-8-yl}cyclohexyl)acetonitrile] |
|  | >6 | ≤ 100 | ≤ 1000 | N#CC[C@H]1CC[C@H](n2/c(=N/C#N)[nH]c3cnc4ccsc4c32)CC1.O=C(O)C(F)(F)F [Example 25, {(2E)-1-[trans-4-(Cyanomethyl)cyclohexyl]-1,3-dihydro-2H-imidazo[4,5-d]thieno[3,2-b]pyridin-2-ylidene}cyanamide trifluoroacetate] |
|  | >10 | ≤ 100 | ≤ 1000 | N#CC[C@H]1CC[C@H](n2c(C3CC3)nc3cnc4ccsc4c32)CC1 [Example 26, [trans-4-(2-Cyclopropyl-1H-imidazo[4,5-b]thieno[3,2-b]pyridin-1-yl)cyclohexyl]acetonitrile] |
|  | >10 | ≤ 100 | ≤ 1000 | CC(C)c1nc2cnc3ccsc3c2n1[C@H]1CC[C@H](CC#N)CC1 [Example 27, [trans-4-(2-Isopropyl-1H-imidazo[4,5-d]thieno[3,2-b]pyridin-1-yl)cyclohexyl]acetonitrile] |
| +++++ | >7 | ≤ 2000 |  | N#CC[C@H]1CC[C@H](n2c(C3CNC3)nc3cnc4ccsc4c32)CC1 [Example 28, [trans-4-(2-Azetidin-3-yl-1H-imidazo[4,5-d]thieno[3,2-b]pyridin-1-yl)cyclohexyl]acetonitrile] |
